Measurements taken from patent US9371365B2, “Modified compstatin with peptide backbone and C-terminal modifications” (The Trustees of the University of Pennsylvania, priority 2009, dated 2016).
Like-named read-outs stand apart in the source and are kept apart here.

Columns and labels:
[1] = In vivo retention: plasma half-life in baboons by LC-MS/MS; set-up: species or system baboon (P. Anubis); details: for half-life: baboon (P. Anubis)
Method: A 96-well plate HLB Oasis 10 mg (Waters, Milford, Mass.) was employed for extraction. The SPE material was conditioned by addition of 500 μl of methanol followed by addition of 500 μL of milli-Q water. Sample was prepared by addition of the internal standard followed by 1:1 dilution with 4% H3PO4. After loading the sample, washing was carried out with 500 μL of 5% methanol in 0.1% formic acid. Sample was eluted with 150 μL of 65% methanol in 0.1% formic acid and collected in the collection plate. Solvent was evaporated to dryness in a speed-vac concentrator and reconstituted in 5% acetonitrile in 0.1% formic acid. Samples were kept at −20° C. until analysis.
Baboon plasma samples, 40 μL, were mixed with internal standard and dissolved 1:1 with 40 mM ammonium carbonate buffer. Rapigest detergent was added to a final concentration of 0.1%. Disulfide bridges were reduced in 5 mM DTT for 30 min at 60° C. Alkylation of cysteines was done by addition of iodoacetamide to a final concentration of 15 mM and incubation for 30 min in dark. The sample was enzymatically digested by addition of 16 μL of a 1 μG/μL trypsin solution and incubation overnight at 37° C. After that, the sample pH was lowered with 5% TFA to induce detergent degradation. To avoid nonspecific adsorption of very hydrophobic peptides, acetonitrile was added to 20%. The samples were centrifuged at 6° C. and 14000 rpm for 30 min and the supernatant was diluted with 0.1% formic acid to reduce acetonitrile concentration to 10% prior to filtration with a 10 kDa cut-off microcon centrifugal filter (Millipore, Billerica, Mass.). The filter was washed with 50 μL of 10% ACN in 0.1% formic acid and the collected sample was evaporated to dryness and reconstituted with 10% ACN in 0.1% formic acid.
LC-MS/MS analysis was performed on a SYNAPT HDMS (Waters, Milford, Mass.) controlled by MassLynx 4.1 software (Waters) and equipped with a nanoESI source. Each sample was injected in triplicate. A nanoACQUITY UPLC (Waters) system was used for peptide separation by reversed-phase liquid chromatography. After injection, analytes were trapped for 3 min with 3% mobile phase A (0.1% formic acid in water) at 5 μl/min on a 5 μm Symmetry C18 column (180 μm×20 mm, Waters) and further separated on a 1.7 μm BEH130 C18 column (75 μm×150 mm, Waters). The analytical column temperature was held at 35° C. Peptides were separated at flow rate 0.3 μl/min. The gradient was linear 3-40% B (0.1% formic acid in acetonitrile), either 50 min long, or 60 min for the digested samples. The capillary voltage was 3.2 kV, the cone voltage was 35 V and the source temperature was 100° C. [Glu1]-fibrinogen peptide was used for lock-mass correction with a sampling rate of 30 s. Mass spectra were acquired in positive mode over an m/z range 400-2000 Da at scan rate 0.6 s. The time window used for the MS/MS function was ±3 min of the retention time of the selected peptide. The presence of the analyte was confirmed by MS/MS. Selectivity was studied by analysis of blank samples to determine the presence of any interference coeluting with the analyte.
Juvenile baboons (P. Anubis, Baboon Research Resources, University of Oklahoma) weighing 5-8 kg were used. Three baboons were used for the study; one for each compound. All animals received a bolus dose of peptides (10 mg) by injection through the peripheral vein. […]

C3b = molecular target: T1, C3b (Homo sapiens, UniProt P01024); test: SPR analysis of binding kinetics to immobilized C3b; details: SPR, Table 2-1
T1 construct: biotin (chemical biotinylation of C3b)
T1 sequence (P01024 23-667 limits assumed): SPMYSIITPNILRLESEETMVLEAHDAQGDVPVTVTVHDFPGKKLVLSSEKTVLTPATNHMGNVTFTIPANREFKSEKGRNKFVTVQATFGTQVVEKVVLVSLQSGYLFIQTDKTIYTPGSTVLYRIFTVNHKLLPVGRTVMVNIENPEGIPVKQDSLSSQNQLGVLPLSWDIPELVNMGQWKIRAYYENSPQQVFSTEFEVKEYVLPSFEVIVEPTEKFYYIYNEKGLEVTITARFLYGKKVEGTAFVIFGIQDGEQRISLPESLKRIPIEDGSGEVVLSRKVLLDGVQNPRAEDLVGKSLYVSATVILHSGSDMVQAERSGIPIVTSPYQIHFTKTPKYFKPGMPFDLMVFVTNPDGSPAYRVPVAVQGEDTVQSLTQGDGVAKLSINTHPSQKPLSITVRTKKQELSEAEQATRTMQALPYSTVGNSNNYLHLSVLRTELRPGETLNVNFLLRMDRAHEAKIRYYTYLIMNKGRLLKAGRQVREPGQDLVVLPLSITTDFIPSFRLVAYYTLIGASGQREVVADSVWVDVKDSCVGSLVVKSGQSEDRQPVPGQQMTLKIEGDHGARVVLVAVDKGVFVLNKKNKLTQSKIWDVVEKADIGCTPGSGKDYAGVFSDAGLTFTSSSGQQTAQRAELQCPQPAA
T1 sequence (P01024 749-1663 limits assumed): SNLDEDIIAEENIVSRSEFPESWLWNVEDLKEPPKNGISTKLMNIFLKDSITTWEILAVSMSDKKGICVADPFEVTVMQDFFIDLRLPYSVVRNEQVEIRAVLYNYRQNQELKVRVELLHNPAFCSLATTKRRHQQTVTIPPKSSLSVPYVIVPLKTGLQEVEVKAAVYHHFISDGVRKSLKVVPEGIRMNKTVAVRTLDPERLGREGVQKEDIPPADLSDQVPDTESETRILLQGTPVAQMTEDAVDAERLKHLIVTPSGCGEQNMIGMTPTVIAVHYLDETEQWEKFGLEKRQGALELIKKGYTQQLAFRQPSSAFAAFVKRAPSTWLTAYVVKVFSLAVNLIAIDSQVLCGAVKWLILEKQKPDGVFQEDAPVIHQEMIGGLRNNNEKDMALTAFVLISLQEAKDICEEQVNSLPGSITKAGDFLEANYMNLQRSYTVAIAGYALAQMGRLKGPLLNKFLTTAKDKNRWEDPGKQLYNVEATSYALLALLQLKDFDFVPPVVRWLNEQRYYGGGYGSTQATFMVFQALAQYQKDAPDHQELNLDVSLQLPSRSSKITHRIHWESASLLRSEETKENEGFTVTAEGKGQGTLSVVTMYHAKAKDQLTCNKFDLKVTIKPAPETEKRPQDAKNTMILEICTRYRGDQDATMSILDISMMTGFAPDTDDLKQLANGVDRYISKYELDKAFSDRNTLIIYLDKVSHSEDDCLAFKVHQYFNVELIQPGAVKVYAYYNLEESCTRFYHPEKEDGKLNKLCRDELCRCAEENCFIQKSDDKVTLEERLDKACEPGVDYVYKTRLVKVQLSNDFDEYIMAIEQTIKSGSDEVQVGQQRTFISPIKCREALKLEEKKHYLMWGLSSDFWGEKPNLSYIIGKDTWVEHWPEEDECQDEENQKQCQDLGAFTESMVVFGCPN
Method: (§1) The kinetics of the interaction between C3b and each compstatin analog was analyzed by SPR on a Biacore 3000 instrument (GE Healthcare Corp., Piscataway, N.J.) at 25° C. using PBS-T (10 mM sodium phosphate, 150 mM NaCl, 0.005% Tween-20, pH 7.4) as the running buffer, as described above. In brief, biotinylated C3b (30 μg/mL) was immobilized on a streptavidin-coated sensor chip, and a two-fold serial dilution series (1 μM-500 pM) of each analog was injected for 2 min at 30 μl/min, with a dissociation phase of 5-10 min. Peptide [Trp(Me)^4]-Ac-compstatin was included in each experimental series as an internal control and reference. Data analysis was performed using Scrubber (BioLogic Software, Campbell, Australia). The signals from an untreated flow cell and an ensemble of buffer blank injections were subtracted to correct for buffer effects and injection artifacts. Processed biosensor data were globally fitted to a 1:1 Langmuir binding model, and the equilibrium dissociation constant (KD) was calculated from the equation KD=kd/ka. Peptide solutions were injected in duplicate in every experiment, and each screening assay was performed at least twice.
as §1, with “in Example 1.” for “above.”, “μg/ml)” for “μg/mL)”, “Peptide [Trp(Me)^4]-Ac-compstatin was included in each experimental series as an internal control and reference.” left out

[2] = tested on: classical pathway of complement; test: Inhibition of classical pathway complement activation, ELISA in human serum; format: biochemical; details: relative to peptide 1; NA: not active
Method: The ability of the compstatin analogs to inhibit the activation of the classical pathway of complement was assessed by ELISA (Mallik et al., 2005, J Med Chem 48:274-86). In brief, complement was activated in human serum using an antigen-antibody complex in the presence or absence of compstatin analogs, and the deposition of C3 fragments on the plate surface was detected using an HRP-conjugated polyclonal anti-C3 antibody. […] The percent inhibition was plotted against the peptide concentration, and the resulting data set was fitted to the logistic dose-response function using Origin 7.0 software. IC50 values were obtained from the fitted parameters that produced the lowest χ^2 value. Each analog was assayed at least three to seven times.
The ability of the compstatin analogs to inhibit the activation of the classical pathway of complement was assessed by ELISA as described in Example 1. Each conjugate was assayed at least three times.

[3] = tested on: classical pathway of complement; details: data from Sahu et al., 1996; cited from earlier work

Compound | half-life ([1]; in vivo, iv, 10 mg) | fold improvement of half-life ([1]; in vivo) | Kd (C3b) | Koff (C3b) | Kon (C3b) | half-life ([1]; in vivo, baboon, intravenous bolus 10 mg, read-out: plasma half-life (converted)) | fold improvement of half-life ([1]; relative to unconjugated peptide 17, baboon) | IC50-fold change [2] | IC50 [3]
CC[C@H](C)[C@H](NC(C)=O)C(=O)N[C@H]1CSSC[C@@H](C(=O)N[C@H](C(=O)NCCOCCOCCOCC(=O)NCCOCCOCCOCC(=O)N[C@@H](CCCCNC(=O)CCNS(=O)(=O)c2ccc3ccccc3c2)C(N)=O)[C@@H](C)CC)NC(=O)[C@H](CCCNC(=N)N)NC(=O)[C@H](Cc2c[nH]cn2)NC(=O)[C@H](C)NC(=O)CN(C)C(=O)[C@H](Cc2c[nH]c3ccccc23)NC(=O)[C@H](CC(=O)O)NC(=O)[C@H](CCC(N)=O)NC(=O)[C@H](Cc2cn(C)c3ccccc23)NC(=O)[C@H](C(C)C)NC1=O [Peptide 17-ABM] | 5 h | 5 fold | 4.7 nM | 5.6 10^−3, s^−1 | 1.2 10^6, M^−1 · s^−1 |  |  |  | 
CC[C@H](C)[C@H](NC(C)=O)C(=O)N[C@H]1CSSC[C@@H](C(=O)N[C@H](C(=O)NCCOCCOCCOCC(=O)NCCOCCOCCOCC(=O)N[C@@H](CCCCNC(=O)Cn2cc(C(=O)N[C@@H](CCCNC(=N)N)C(=O)N[C@@H](CC(C)C)C(=O)N[C@H](C(=O)N[C@@H](CCC(=O)O)C(=O)N[C@@H](CC(=O)O)C(=O)N[C@H](C(=O)N[C@H]3CSSC[C@@H](C(=O)N[C@@H](CC(C)C)C(=O)N[C@@H](Cc4c[nH]c5ccccc45)C(=O)N[C@@H](CCC(=O)O)C(=O)N[C@@H](CC(=O)O)C(=O)N[C@@H](CC(=O)O)C(N)=O)NC(=O)CNC(=O)[C@H](Cc4c[nH]c5ccccc45)NC(=O)[C@H](CCCNC(=N)N)NC(=O)[C@@H]4CCCN4C(=O)[C@H](CC(C)C)NC3=O)[C@@H](C)CC)[C@@H](C)CC)nn2)C(N)=O)[C@@H](C)CC)NC(=O)[C@H](CCCNC(=N)N)NC(=O)[C@H](Cc2c[nH]cn2)NC(=O)[C@H](C)NC(=O)CN(C)C(=O)[C@H](Cc2c[nH]c3ccccc23)NC(=O)[C@H](CC(=O)O)NC(=O)[C@H](CCC(N)=O)NC(=O)[C@H](Cc2cn(C)c3ccccc23)NC(=O)[C@H](C(C)C)NC1=O [Peptide 17-ABP] |  |  | 32 nM | 3.6 10^−3, s^−1 | 0.1 10^6, M^−1 · s^−1 | 21 h | 21 fold |  | 
Ac-I[CVYQDWGAHRC]T-NH2 [Peptide 1, reference compound] |  |  |  |  |  |  |  | 1 | 2400 nM
